Experimental findings from ChEMBL document CHEMBL3045260, “Synthesis, anti-microbial evaluation, and QSAR studies of 4-amino-3-hydroxy-naphthalene-1-sulfonic acid derivatives” (2012) are described below.

In brackets after ≈: the same amount, converted by molar mass. Where only a bound is given, the exact number is not on record here.

Holding throughout (type): functional
The test system of assay [1] is Aspergillus niger. Description: Ratio of MFC to MIC for Aspergillus niger MTCC 8189.
The subject of assay [2] is Candida albicans. Description: Ratio of MFC to MIC for Candida albicans MTCC 227.
The subject of assay [3] is Escherichia coli. Description: Ratio of MBC to MIC for Escherichia coli MTCC 1652.
The test system of assay [4] is Bacillus subtilis. In words: Ratio of MBC to MIC for Bacillus subtilis MTCC 2063.
Assay [5] has as its system Aspergillus niger. In words: Fungicidal activity against Aspergillus niger MTCC 8189.
The test system of assay [6] is Staphylococcus aureus. Description: Ratio of MBC to MIC for Staphylococcus aureus MTCC 2901.
Assay [7] concerns Candida albicans. In words: Fungicidal activity against Candida albicans MTCC 227.
Assay [8] relates to Escherichia coli. In words: Bactericidal activity against Escherichia coli MTCC 1652.
In assay [9] the test system is Bacillus subtilis. In words: Bactericidal activity against Bacillus subtilis MTCC 2063.
In assay [10] the test system is Aspergillus niger. In words: Antifungal activity against Aspergillus niger MTCC 8189 after 7 days by tube dilution method.
The test system of assay [11] is Staphylococcus aureus. Description: Bactericidal activity against Staphylococcus aureus MTCC 2901.
The test system of assay [12] is Candida albicans. In words: Antifungal activity against Candida albicans MTCC 227 after 48 hr by tube dilution method.
For assay [13], the system named is Escherichia coli. Description: Antibacterial activity against Escherichia coli MTCC 1652 after 24 hr by tube dilution method.
Assay [14] has as its system Bacillus subtilis. Description: Antibacterial activity against Bacillus subtilis MTCC 2063 after 24 hr by tube dilution method.
The test system of assay [15] is Staphylococcus aureus. In words: Antibacterial activity against Staphylococcus aureus MTCC 2901 after 24 hr by tube dilution method.

Broadly, the MFC is the lowest tested concentration that kills the fungus rather than only halting it. Read a low MFC as greater fungicidal potency. In general, MBC refers to the smallest concentration meeting the test's criterion for killing.

With `O=S(=O)(O)c1cc(O)c(/N=C/C=C/c2ccccc2)c2ccccc12`, the Ratio in the assay on Aspergillus niger [1], in the assay with Candida albicans [2], with Escherichia coli [3], in the assay with Bacillus subtilis [4] and in the assay with Staphylococcus aureus [6] was 3 each time. The MFC in the assay on Aspergillus niger [5] is 140 µM (≈ 49.5 µg/mL); in the assay with Candida albicans [7], more than 140 µM. Further, the MBC against Escherichia coli [8], with Bacillus subtilis [9] and against Staphylococcus aureus [11] was more than 140 µM each time. Besides, the “-logMIC” value is 1.45 in the assay on Aspergillus niger [10]; 1.45 with Candida albicans [12]; 1.45 in the assay with Escherichia coli [13]; 1.45 in the assay on Bacillus subtilis [14]; 1.15 with Staphylococcus aureus [15].

Consider `COc1ccc(/C=N/c2c(O)cc(S(=O)(=O)O)c3ccccc23)cc1`, for which the Ratio in the assay on Aspergillus niger [1], with Candida albicans [2], with Escherichia coli [3], in the assay with Bacillus subtilis [4] and in the assay on Staphylococcus aureus [6] was 3 in each case. In addition, the minimal fungicidal concentration (MFC) was 130 µM (≈ 46.5 µg/mL) in the assay with Aspergillus niger [5] and more than 130 µM against Candida albicans [7]. In addition, the MBC with Escherichia coli [8], in the assay with Bacillus subtilis [9] and in the assay on Staphylococcus aureus [11] was more than 130 µM in each case. Further, the “-logMIC” value amounted to 1.46 in the assay with Aspergillus niger [10]; 1.46 with Candida albicans [12]; 1.46 in the assay with Escherichia coli [13]; 1.46 with Bacillus subtilis [14]; 1.16 in the assay with Staphylococcus aureus [15].

In the case of `O=[N+]([O-])c1cccc(/C=N/c2c(O)cc(S(=O)(=O)O)c3ccccc23)c1`, the Ratio in the assay with Aspergillus niger [1], in the assay on Candida albicans [2], in the assay with Escherichia coli [3], with Bacillus subtilis [4] and in the assay with Staphylococcus aureus [6] was 3 in each case. Besides, the MFC in the assay on Aspergillus niger [5] and in the assay with Candida albicans [7] was more than 140 µM each time. Besides, the MBC in the assay on Escherichia coli [8], in the assay on Bacillus subtilis [9] and in the assay on Staphylococcus aureus [11] was more than 140 µM each time. Besides, the “-logMIC” value is on record as 1.47 in the assay on Aspergillus niger [10]; 1.47 in the assay with Candida albicans [12]; 1.47 in the assay with Escherichia coli [13]; 1.47 with Bacillus subtilis [14]; 1.17 with Staphylococcus aureus [15].

Take `O=S(=O)(O)c1cc(O)c(/N=C/c2ccc(Cl)cc2Cl)c2ccccc12`: the Ratio with Aspergillus niger [1], with Candida albicans [2], with Escherichia coli [3], in the assay with Bacillus subtilis [4] and with Staphylococcus aureus [6] was 3 in each case. The MFC against Aspergillus niger [5] and against Candida albicans [7] was more than 140 µM each time. Moreover, the MBC in the assay with Escherichia coli [8], against Bacillus subtilis [9] and in the assay with Staphylococcus aureus [11] was more than 140 µM each time. Also, the “-logMIC” value with Aspergillus niger [10] is 1.5; in the assay on Candida albicans [12], 1.5; in the assay with Escherichia coli [13], 1.5; in the assay on Bacillus subtilis [14], 1.5; in the assay with Staphylococcus aureus [15], 1.2.

As for `CCOc1cc(/C=N/c2c(O)cc(S(=O)(=O)O)c3ccccc23)ccc1O`, the Ratio with Aspergillus niger [1], with Candida albicans [2], in the assay with Escherichia coli [3], in the assay with Bacillus subtilis [4] and in the assay with Staphylococcus aureus [6] was 3 each time. Further, the MFC in the assay on Aspergillus niger [5] was 30 µM (≈ 11.6 µg/mL); against Candida albicans [7] it was more than 130 µM. In addition, the MBC is more than 130 µM in the assay on Escherichia coli [8], more than 130 µM in the assay on Bacillus subtilis [9] and 130 µM (≈ 50.4 µg/mL) against Staphylococcus aureus [11]. Moreover, the “-logMIC” value in the assay on Aspergillus niger [10] was 1.49; in the assay on Candida albicans [12], 1.49; in the assay on Escherichia coli [13] it was 1.49; with Bacillus subtilis [14], 1.49; in the assay on Staphylococcus aureus [15], 1.19.

In the assay with Aspergillus niger [5], `OC(Cn1cncn1)(Cn1cncn1)c1ccc(F)cc1F` [FLUCONAZOLE] had an MFC of 40 µM (≈ 12.3 µg/mL). Also, the “-logMIC” value in the assay with Aspergillus niger [10] and with Candida albicans [12] was 2.64 each time.

Consider `CCn1cc(C(=O)O)c(=O)c2cc(F)c(N3CCNCC3)cc21` [NORFLOXACIN], for which the MBC against Escherichia coli [8], in the assay on Bacillus subtilis [9] and in the assay on Staphylococcus aureus [11] was 19 µM (≈ 6.07 µg/mL) each time. Also, the “-logMIC” value in the assay with Escherichia coli [13], in the assay with Bacillus subtilis [14] and with Staphylococcus aureus [15] was 2.61 each time.
